# Test results reported in PubChem BioAssay (NCI).
#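 Growth conditions: 96-well plates. Treatment: test compound, 48 hours, 5 concentrations. Analysis: linear interpolation between bracketing concentrations; unreached endpoints set to highest concentration. GI50 is the concentration that inhibits growth by half. Definition used: TGI = concentration required for complete inhibition of growth.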
# Assays:
# Experiment in all cases: NCI tumour cell line growth inhibition, 48 h
# [1] = test system: T-47D breast
# [2] = test system: M14 melanoma
# [3] = test system: MDA-MB-435
# [4] = test system: 786-0 renal
# [5] = test system: MDA-N
# [6] = test system: DLD-1 colon
# [7] = test system: LXFL 529 NSCLC
# [8] = test system: KM20L2 colon
# [9] = test system: P388 leukemia
# [10] = test system: SN12K1 renal
# [11] = test system: P388/ADR leukemia
# [12] = test system: RXF-631 renal
SMILES,TGI [1] [µM],TGI [2] [µM],TGI [3] [µM],TGI [6] [µM],TGI [8] [µM],other results
Cc1nc(N)sc1-c1ccnc(Nc2ccc(N3CCOCC3)cc2)n1,> 100,> 100,36.7,–,–,GI50 [1]: 2.92 µM; GI50 [2]: 2.66 µM; GI50 [3]: 1.86 µM
NC(N)=NCCN=C(N)N,> 100,> 100,> 100,–,–,TGI [4]: > 100 µM; TGI [5]: > 100 µM
O=[N+]([O-])c1ccc(C=C2C(Cl)=C(Cl)C(Cl)=C2Cl)cc1,5.46,–,–,–,–,GI50 [1]: 2.16 µM
Cc1ccc2c(n1)C(=O)c1[nH]c3ccccc3c1C2=O,17.9,–,2.94,–,–,GI50 [1]: 0.537 µM; GI50 [3]: 1.59 µM
NC(Cc1cccc([N+](=O)[O-])c1)C(=O)O (configuration not stated),> 100,> 100,> 100,–,–,TGI [4]: > 100 µM; TGI [5]: > 100 µM
COc1ccc(C2CC(c3cccc(Nc4ccncc4)c3)=NN2c2cc(Cl)cc(Cl)c2)cc1 (configuration not stated),4.43,–,3.32,–,–,GI50 [1]: 1.96 µM; GI50 [3]: 1.75 µM
CCC[CH2][Ge]([CH2]CCC)([CH2]CCC)[O]C(=O)CC(=O)c1ccccc1,–,8.86,–,16,17,GI50 [2]: 1.42 µM; GI50 [6]: 0.77 µM; GI50 [7]: 0.325 µM; TGI [7]: 13.7 µM; GI50 [8]: 0.77 µM
NCCCNc1nc2ccccc2c2c(=O)c3cc(OC(F)(F)F)ccc3sc12,–,3.16,2.96,–,–,GI50 [2]: 1.67 µM; GI50 [3]: 1.59 µM
NNC(N)Nc1ccccc1 (configuration not stated),> 100,> 100,> 100,–,–,TGI [5]: > 100 µM
NC(CCCCP(=O)(O)O)C(=O)O (configuration not stated),> 100,> 100,> 100,–,–,TGI [5]: > 100 µM
CC1CC=CC(O)C1 (configuration not stated),–,–,–,> 100,> 100,TGI [9]: > 100 µM; TGI [10]: > 100 µM; TGI [11]: > 100 µM
O=C(OC(=O)n1ccc2ccccc21)n1ccc2ccccc21,–,–,–,> 100,> 100,TGI [10]: > 100 µM
O=NN(CCCl)C(=O)NC1CCSc2ccccc21 (configuration not stated),–,–,–,> 100,> 100,TGI [9]: 82.6 µM; TGI [10]: > 100 µM; TGI [11]: > 100 µM
C[C@]12C=CC(=O)C=C1CC[C@H]1[C@@H]3C[C@@H](O)[C@](O)(C(=O)CO)[C@@]3(C)C[C@H](O)[C@@]12F,–,> 100,–,> 100,> 100,TGI [4]: > 100 µM; TGI [12]: > 100 µM; TGI [7]: > 100 µM
COc1ccccc1C1C(C(=O)O)=C(CO)Oc2cc3c(cc21)OCO3 (configuration not stated),–,> 100,–,–,> 100,TGI [7]: > 100 µM
Cc1ccc(S(=O)(=O)Oc2cc(-c3ccccc3)nc3ccccc23)cc1,–,–,–,> 46.8,3.52,TGI [9]: 3.12 µM; TGI [10]: 4.25 µM; TGI [11]: 12.6 µM
CC(=O)Oc1cccc2c(/C=N/NC(N)=S)ncc(C)c12,31.3,3.18,> 45.9,–,–,TGI [5]: 21 µM
